Data published in US12703850B2, “Photostabilized compositions and a method for stabilizing photosensitive components” (Evonik Operations GmbH, priority 2022, dated 2026).
Where a SMILES comes first, the peptide text is derived from it.

Assays:
Format in all cases: physicochemical
[1] = Brown color index of solutions with 0.013 mM riboflavin exposed to day light, Example 2; details: for Color after exposure (in words): amino acid up to 32 mM, 7 days; for Brown color index in cell culture media (MEM) Day 7 / Brown color index in cell culture media (MEM) Day 0 / Brown color index in PBS Day 7 / Brown color index in PBS Day 0: with 0.013 mM riboflavin; for Brown color index in cell culture media (MEM) Day 7 / Brown color index in PBS Day 7: 7 days day light; for Brown colorization after exposure (in words): 2 mM, any type of aqueous solution used
Procedure: Aqueous solutions of 2.5 mM L-Tryptophan (Trp) and 0.013 mM riboflavin were prepared in phosphate-buffered saline (D-PBS) as well as in Minimal Essential Medium (MEM). These solutions were used to dissolve the dipeptides L-alanyl-L-tyrosine dihydrate (Ala-Tyr) and glycyl-L-tyrosine dihydrate (Gly-Tyr) as well as the amino acids L-tyrosine (Tyr), L-alanine (Ala), and glycine (Gly) at several concentrations to create solvent mixtures. In example 1, the dipeptides were tested at concentrations of 0.5 mM, 2.5 mM and 10 mM and Tyr at a concentration of 0.5 mM. PBS and MEM as well as 2.5 mM Trp dissolved in PBS and MEM were used as controls. In example 2, the dipeptides and Tyr were tested at a concentration of 2 mM, Ala and Gly at 32 mM, and the solvent (PBS or MEM) was used as control (“solvent background”).
(§1) The samples were exposed to electromagnetic radiation (day light) at room temperature for seven (example 2) as well as 14 days (example 1). A relative quantification of the brown color of the samples of example 1 was obtained by measuring the absorbance at 330 nm. The intensity of the brown color of samples of example 2 was determined by eye using a brown color index.
Aqueous solutions of PBS or MEM containing 0.013 mM riboflavin show a week fluorescent yellow-green color. Exposure to electromagnetic radiation at room temperature for seven days results in a brown colorization of the MEM solution, while the yellow-green color in PBS solutions vanished.

[2] = Brown color index of solutions without riboflavin exposed to day light, Example 2; details: for Color after exposure (in words): amino acid up to 32 mM, 7 days electromagnetic radiation; for Color after exposure (in words) / Brown color index in cell culture media (MEM) Day 7 / Brown color index in PBS Day 7: room temperature; for Brown color index in cell culture media (MEM) Day 7 / Brown color index in cell culture media (MEM) Day 0 / Brown color index in PBS Day 7 / Brown color index in PBS Day 0: without 0.013 mM riboflavin; for Brown color index in cell culture media (MEM) Day 7 / Brown color index in PBS Day 7: 7 days day light
Procedure: […] These solutions were used to dissolve the dipeptides L-alanyl-L-tyrosine dihydrate (Ala-Tyr) and glycyl-L-tyrosine dihydrate (Gly-Tyr) as well as the amino acids L-tyrosine (Tyr), L-alanine (Ala), and glycine (Gly) at several concentrations to create solvent mixtures. In example 1, the dipeptides were tested at concentrations of 0.5 mM, 2.5 mM and 10 mM and Tyr at a concentration of 0.5 mM. PBS and MEM as well as 2.5 mM Trp dissolved in PBS and MEM were used as controls. In example 2, the dipeptides and Tyr were tested at a concentration of 2 mM, Ala and Gly at 32 mM, and the solvent (PBS or MEM) was used as control (“solvent background”).
as §1
Other control solutions of PBS and MEM without riboflavin were colorless at day 0.

[3] = Brown colorization of tryptophan solutions exposed to day light (absorbance at 330 nm), Example 1; details: room temperature; for Effect on brown colorization compared with Tyr: 0.5 mM Tyr-dipeptide versus 0.5 mM Tyr; for Effect on brown colorization compared with Tyr / Effect on brown colorization of Trp solution: day light; for Effect on brown colorization of Trp solution: 14 days
Procedure: Aqueous solutions of 2.5 mM L-Tryptophan (Trp) and 0.013 mM riboflavin were prepared in phosphate-buffered saline (D-PBS) as well as in Minimal Essential Medium (MEM). These solutions were used to dissolve the dipeptides L-alanyl-L-tyrosine dihydrate (Ala-Tyr) and glycyl-L-tyrosine dihydrate (Gly-Tyr) as well as the amino acids L-tyrosine (Tyr), L-alanine (Ala), and glycine (Gly) at several concentrations to create solvent mixtures. […] PBS and MEM as well as 2.5 mM Trp dissolved in PBS and MEM were used as controls.
The intensity of the brown color was measured as absorbance difference at 330 nm.

[4] = 7 days electromagnetic radiation, room temperature
[5] = addition of 0.5 mM to 2.5 mM Trp in PBS or MEM, absorbance at 330 nm
[6] = dipeptide concentrations of up to 10 mM, 2.5 mM Trp in PBS or MEM

Row | Structure (SMILES) | Brown color index in cell culture media (MEM) Day 7 ([2]; sample 32 mM) | Brown color index in cell culture media (MEM) Day 0 ([2]; sample 32 mM) | Brown color index in PBS Day 7 ([2]; sample 32 mM) | Brown color index in PBS Day 0 ([2]; sample 32 mM) | Brown colorization after exposure (in words) [1, 4] | Brown color index in cell culture media (MEM) Day 7 ([1]; sample 2 mM, room temperature) | Brown color index in cell culture media (MEM) Day 0 ([1]; sample 2 mM) | Brown color index in PBS Day 7 ([1]; sample 2 mM, room temperature) | Brown color index in PBS Day 0 ([1]; sample 2 mM) | Effect on brown colorization of Trp solution [3, 5] | further results
1 | C[C@H](N)C(=O)O [Ala, L-alanine] | 1 (week brown color) | 0 (no brown color) | 0 (no brown color) | 0 (no brown color) |  |  |  |  |  |  | Color after exposure (in words) ([1]; MEM with 0.013 mM riboflavin): normal brown; Color after exposure (in words) ([1]; PBS with 0.013 mM riboflavin): stayed colorless; Brown color index in cell culture media (MEM) Day 7 ([1]; sample 32 mM, room temperature): 3; Brown color index in cell culture media (MEM) Day 0 ([1]; sample 32 mM): 0 (no brown color); Brown color index in PBS Day 7 ([1]; sample 32 mM, room temperature): 0 (no brown color); Brown color index in PBS Day 0 ([1]; sample 32 mM): 0 (no brown color); Color after exposure (in words) ([2]; MEM without riboflavin): week brown; Color after exposure (in words) ([2]; PBS without riboflavin): stayed colorless
2 | C[C@H](N)C(=O)N[C@@H](Cc1ccc(O)cc1)C(=O)O.O.O [Ala-Tyr, L-alanyl-L-tyrosine dihydrate] (H-Ala-Tyr-OH) | 1 (week brown color) | 0 (no brown color) | 0 (no brown color) | 0 (no brown color) | normal brown color | 3 | 0 (no brown color) | 3 | 0 (no brown color) | reduce this colorization | Effect on brown colorization compared with Tyr ([3]; 2.5 mM Trp in PBS or MEM): the effect is greater; Effect on brown colorization of Trp solution [3, 6]: further reduction or even completely prevented the change in color
3 | NCC(=O)O [Gly, glycine] | 1 (week brown color) | 0 (no brown color) | 0 (no brown color) | 0 (no brown color) |  |  |  |  |  |  | Color after exposure (in words) ([1]; MEM with 0.013 mM riboflavin): normal brown; Color after exposure (in words) ([1]; PBS with 0.013 mM riboflavin): stayed colorless; Brown color index in cell culture media (MEM) Day 7 ([1]; sample 32 mM, room temperature): 3; Brown color index in cell culture media (MEM) Day 0 ([1]; sample 32 mM): 0 (no brown color); Brown color index in PBS Day 7 ([1]; sample 32 mM, room temperature): 0 (no brown color); Brown color index in PBS Day 0 ([1]; sample 32 mM): 0 (no brown color); Color after exposure (in words) ([2]; MEM without riboflavin): week brown; Color after exposure (in words) ([2]; PBS without riboflavin): stayed colorless
4 | NCC(=O)N[C@@H](Cc1ccc(O)cc1)C(=O)O.O.O [Gly-Tyr, glycyl-L-tyrosine dihydrate] (H-Gly-Tyr-OH) | 1 (week brown color) | 0 (no brown color) | 0 (no brown color) | 0 (no brown color) | normal brown color | 3 | 0 (no brown color) | 3 | 0 (no brown color) | reduce this colorization | Effect on brown colorization compared with Tyr ([3]; 2.5 mM Trp in PBS or MEM): the effect is greater; Effect on brown colorization of Trp solution [3, 6]: further reduction or even completely prevented the change in color
5 | N[C@@H](Cc1c[nH]c2ccccc12)C(=O)O [Trp, L-Tryptophan] |  |  |  |  |  |  |  |  |  |  | Color change on exposure to electromagnetic radiation ([3]; 2.5 mM Trp alone in PBS or MEM): strong color change towards brown color
6 | N[C@@H](Cc1ccc(O)cc1)C(=O)O [Tyr, L-tyrosine] |  |  |  |  | strong brown | 5 (strong brown color) | 0 (no brown color) | 5 (strong brown color) | 0 (no brown color) | reduce this colorization | Brown color index in cell culture media (MEM) Day 7 ([2]; sample 2 mM): 2 (moderate brown color); Brown color index in cell culture media (MEM) Day 0 ([2]; sample 2 mM): 0 (no brown color); Brown color index in PBS Day 7 ([2]; sample 2 mM): 0 (no brown color); Brown color index in PBS Day 0 ([2]; sample 2 mM): 0 (no brown color)
7 | Cc1cc2nc3c(=O)[nH]c(=O)nc-3n(C[C@H](O)[C@H](O)[C@H](O)CO)c2cc1C [riboflavin, (−)-Riboflavin] |  |  |  |  |  |  |  |  |  |  | Intensity of brown color (brown color index, in words) ([1]; 0.013 mM riboflavin alone in MEM, 7 days electromagnetic radiation, room temperature): normal brown color; Yellow-green color after exposure ([1]; 0.013 mM riboflavin alone in PBS, 7 days electromagnetic radiation, room temperature): vanished
